Data reported in US7145037B2, “Adamantane derivatives with neuroprotective, antidepressant and anti-ischaemic activities, and process for preparing them” (Rotta Research Laboraturium S.p.A., priority 2003, dated 2006).
Counter-ions that a name gives are not always drawn. Marks after values point to notes of the source that are not given here.

Key:
mouse [1] = assay: Swimming test (Porsolt) in the mouse; format: in vivo
Procedure: Process: The procedure is similar to that described by Porsolt et al. (Arch. Int. Pharmacodyn. 229, p. 327–336 (1977).
Naïve (unconditioned) mice are subjected to forced swimming for 15 minutes in a glass cylinder containing 20 cm of water at a temperature of 25° C. The period of immobility from the third to the sixth minute (inclusive) and the time to reach total immobility from the sixth to the fifteenth minute were measured. Total immobility is defined as the latent time required in order for the animal to remain immobile for at least 30 seconds. The compounds were administered orally 60 minutes before the test.

[2] = test system: rat parieto-occipital cortex slices; assay: Release of [3H]D-aspartate evoked by 30 mM KCl under hypoglycaemic conditions in rat parieto-occipital slices; format: cell-based; conditions: read-out: IC50 for antagonizing the hypoglycaemia-induced increase in the release of [3H]D-aspartate
Procedure: This in vitro experimental model was designed to mimic a condition of […] and is a modification of the model reported by Zablocka B. and Domanska-Janik K., [NeuroReport 6, 85–88 (1994)].
Rat parieto-occipital cortex is removed and sectioned into 400 μm coronal slices. The cortical slices are incubated at 37° C. for 30 minutes with [^3H]D-aspartate and then, after washing for 45 minutes, stimulated for 5 minutes with a hypertonic potassium solution (30 mM). Once the basal conditions have been restored, the slices are perfused with a glucose-free medium for 20 minutes. The test compounds are at this point added to a standard medium containing glucose and perfused until the end of the experiment. 10 minutes from the end of the hypoglycaemic period, a further hypertonic potassium stimulation depolarizes the neuronal membrane, causing an approximately 75% increase in the release of [^3H]D-aspartate evoked under control conditions.

rat striatum slices [3] = assay: Basal release of [3H]dopamine from rat striatum slices in perfusion; format: cell-based; conditions: inactive = at the concentration in parentheses
Procedure: (§1) The animals were sacrificed and the brains rapidly removed from the brain case and immediately transferred at 4° C. into artificial cerebrospinal fluid (aCSF) aerated with a gas mixture composed of 95% oxygen and 5% carbon dioxide. The brains were then sectioned at a temperature of 4° C. and the encephalic areas of interest (hippocampus and corpora striata) removed and immersed in the solution mentioned above.
(§2) Cerebral slices 400 μm thick were then prepared using a McIllwain “chopper”. The hippocampus slices were incubated with 0.08 μM of [^3H] noradrenalin and the striatum slices with 0.01 μM of [^3H] dopamine and/or with 0.09 μM of [^3H] choline at a temperature of 37° C. for 20 minutes. The slices labelled with [^3H] noradrenalin were incubated in the presence of 0.1 μM 6-nitroquipazine and 0.1 μM GBR 12909, which are selective inhibitors of the uptake of serotonin and dopamine, respectively, in order to prevent possible false labelling of serotoninergic and dopaminergic synaptic endings.
(§3) For the same reasons, the slices labelled with [^3H] dopamine were incubated in the presence of 0.1 μM 6-nitroquipazine and 0.1 μM nisoxetine, which are selective inhibitors of serotonin and noradrenalin uptake. […]
(§4) At the end of the experiment, the collected samples and the perfused slices (dissolved in toluene) were subjected to counting of the radioactivity present in each fraction and/or slice using a scintillator for liquid samples. The fractional release of tritiated neurotransmitters was calculated as the amount of radioactivity present in each fraction divided by the total radioactivity present in the slice at the moment at which it was collected. The ratios between the fractional release at a given moment of the perfusion and the fractional release in the first collected fraction were thus calculated for each slice. The effects of the compounds were expressed as a percentage of increase of the release of the neurotransmitters studied relative to the control slices perfused in the absence of drugs (Table 2).

NMDA receptor [4] = biological target: T1, NMDA receptor; assay: Binding of [3H]MK-801 to rat cortical synaptosomial membranes; conditions: H3-MK-801, 45 min at 23° C., read-out: IC50, concentration displacing 50% of the ligand (MK-801) from the receptor
T1 construct: IC50, concentration displacing 50% of the ligand (MK-801) from the receptor; other: rat cortical membranes, H3-MK-801

rat striatum slices [5] = assay: Basal release of [3H]acetylcholine from rat striatum slices in perfusion; format: cell-based; conditions: inactive = at the concentration in parentheses
Procedure: as §1, §2, §3, §4

mouse [6] = assay: "Tail pinching" test in the mouse; format: in vivo; conditions: for Immobility time: 5 minutes; for % effect vs control: immobility time; for ED50: oral, calculated ED50, read-out: ED50 (reduction of immobility time)
Procedure: Process: The procedure is similar to that described by Steru et al. [Psychopharmacol. 85, p. 367-(1985)]. The animals are suspended by the tail 75 cm above the bench surface. The duration of immobility is measured over a period of 5 minutes: the animals are considered as being immobile only when they hang passively and completely motionless. The compounds were administered orally 30 minutes before the test.

rat hippocampus slices = assay: Basal release of [3H]noradrenalin from rat hippocampus slices in perfusion; format: cell-based
Procedure: as §1, §2, §3, §4

NMDA receptor [7] = assay: Release of [3H]noradrenalin stimulated by NMDA in rat hippocampus slices; format: cell-based; conditions: aCSF lacking Mg2+, 100 μM NMDA, read-out: IC50 for antagonizing the effect of 100 μM NMDA on [3H]noradrenalin release
Procedure: The preparation of the slices is analogous to that described previously. The slices were perfused in the presence of [^3H] noradrenalin with an aCSF lacking in Mg^2+ ions. After perfusion for 45 minutes to equilibrate the system, 7 fractions of 5 minutes each were collected. The test compounds were added to the perfusion liquid 10 minutes before starting the collection of the fractions, while 100 μM NMDA was added only to fraction 4, from the fifteenth minute after the start of collection.
At the end of the experiment, the radioactivity present was counted as described previously. For each sample, the percentage ratio between the fractional release in fraction 4 in the presence of NMDA and the fractional release in the first collected fraction was determined. The activity of the test drugs was expressed as a mean percentage value of the number of experiments performed relative to the percentage increase in the release of [^3H] noradrenalin into the NMDA-stimulated control chambers in the absence of antagonists.

NO-synthetase (NOS) = NO-synthetase (NOS) (Oryctolagus cuniculus, UniProt G1SGE1); assay: Inhibition of NO (nitrite) formation in rabbit articular chondrocytes stimulated with IL-1β; format: cell-based; conditions: for IC50: nitrite formation, IL-1β 1 ng/ml, 48 hours, 95% confidence limits in parentheses, read-out: Rabbit articular chondrocytes % inhibition (IC50 × 10^−6M)
Procedure: a) The inhibitory activity on the formation of NO, measured as NO2^− (nitrite), was studied in vitro on culture media of rabbit articular chondrocytes stimulated with the cytokine IL-1β (1 ng/ml) for 48 hours. For the preparation of the chondrocytes, the method described by Berenbaum et al. […] The cells were maintained under these conditions to the point of confluency (about 15 days), the medium being changed every 3 days. […] The stimulation lasted for 48 hours at 37° C. (incubation under air-7% CO2). Next, an assay of the nitrites was performed on the cell supernatant according to the method described by Green et al. [Anal. Biochem. 126, 131–138 (1982)].

[8] = 3 mg/kg orally 60 minutes before the test
[9] = 10 mg/kg orally 60 minutes before the test
[10] = 30 mg/kg orally 60 minutes before the test
[11] = 1 mg/kg orally 30 minutes before the test
[12] = 10 mg/kg orally 30 minutes before the test
[13] = 0.1 mg/kg orally 60 minutes before the test
[14] = 1 mg/kg orally 60 minutes before the test

Chain of NO-synthetase (NOS) (G1SGE1 entry or part of it): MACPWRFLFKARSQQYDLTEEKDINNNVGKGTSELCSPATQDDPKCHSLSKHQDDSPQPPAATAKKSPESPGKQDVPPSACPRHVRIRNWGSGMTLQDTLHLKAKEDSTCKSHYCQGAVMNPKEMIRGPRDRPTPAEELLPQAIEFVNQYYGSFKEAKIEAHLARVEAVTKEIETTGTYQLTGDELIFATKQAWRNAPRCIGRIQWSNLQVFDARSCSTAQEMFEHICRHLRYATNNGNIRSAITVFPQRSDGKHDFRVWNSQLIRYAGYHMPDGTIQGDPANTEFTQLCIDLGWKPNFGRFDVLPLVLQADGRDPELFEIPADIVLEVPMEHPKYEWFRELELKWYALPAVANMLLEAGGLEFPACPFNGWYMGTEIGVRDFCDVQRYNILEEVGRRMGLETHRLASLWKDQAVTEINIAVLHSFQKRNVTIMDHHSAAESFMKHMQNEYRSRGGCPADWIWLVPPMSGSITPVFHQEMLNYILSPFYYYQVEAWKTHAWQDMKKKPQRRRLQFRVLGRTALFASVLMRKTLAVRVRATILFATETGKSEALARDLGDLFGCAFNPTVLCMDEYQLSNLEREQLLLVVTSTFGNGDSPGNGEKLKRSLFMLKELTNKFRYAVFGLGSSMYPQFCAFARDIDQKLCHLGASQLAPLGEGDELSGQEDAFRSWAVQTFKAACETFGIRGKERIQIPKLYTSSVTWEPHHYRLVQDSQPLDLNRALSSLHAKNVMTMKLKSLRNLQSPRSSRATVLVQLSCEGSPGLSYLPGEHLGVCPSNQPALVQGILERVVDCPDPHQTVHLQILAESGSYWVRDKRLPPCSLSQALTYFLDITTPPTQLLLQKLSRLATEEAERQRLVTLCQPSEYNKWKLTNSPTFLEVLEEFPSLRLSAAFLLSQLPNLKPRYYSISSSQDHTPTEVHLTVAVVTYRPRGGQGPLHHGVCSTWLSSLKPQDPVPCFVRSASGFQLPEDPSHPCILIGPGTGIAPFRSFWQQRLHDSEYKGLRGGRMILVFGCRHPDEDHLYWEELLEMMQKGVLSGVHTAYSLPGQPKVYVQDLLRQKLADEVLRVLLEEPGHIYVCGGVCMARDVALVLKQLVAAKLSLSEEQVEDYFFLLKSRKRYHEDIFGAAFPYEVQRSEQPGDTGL

SMILES: CC(=N)NCCC12CC3CC(CC(C3)C1)C2 (as salt: HCl) [Compound 1]
- melting point: 243 °C

SMILES: N=C(N)NCCC12CC3CC(CC(C3)C1)C2 (as salt: HCl) [Compound 3]
- melting point: 246 °C

SMILES: CN(C)CCC=C1c2ccccc2CCc2ccccc21 [Amitryptiline, reference compound]
- Immobility in sec. (3–6 mins) (mouse [1]; [8]): 54.9 s
- Latent time vs immobility in sec. (6–15 mins) (mouse [1]; [8]): 477.5 s
- Immobility in sec. (3–6 mins) (mouse [1]; [9]): 56.0 s
- Latent time vs immobility in sec. (6–15 mins) (mouse [1]; [9]): 461.0 s
- Immobility in sec. (3–6 mins) (mouse [1]; [10]): 42.0 s
- Latent time vs immobility in sec. (6–15 mins) (mouse [1]; [10]): 607.8** sec.

SMILES: CC(=N)NCCC12CC3CC(C)(CC(C)(C3)C1)C2 [Compound 2, N-[2-(3,5-dimethyl-1-adamantyl)ethyl]-acetamidine]
- IC50 [2]: 2.5 µM
- Basal release of [3H]DA on striatum slices: concentration increasing basal release by 100% (rat striatum slices [3]): 2 µM
- IC50 (NMDA receptor [4]): ~40 µM
- Basal release of [3H]Ach on striatum slices: concentration increasing basal release by 100% (rat striatum slices [5]): inactive
- Immobility time (mouse [6]; 0.3 mg/kg orally 30 minutes before the test): 56.6 s
- % effect vs control (mouse [6]; 0.3 mg/kg orally): 25.7%
- Immobility time (mouse [6]; [11]): 48.0 s
- % effect vs control (mouse [6]; 1 mg/kg orally): 37.0%
- Immobility time (mouse [6]; 3 mg/kg orally 30 minutes before the test): 42.6 s
- % effect vs control (mouse [6]; 3 mg/kg orally): 44.1%
- Immobility time (mouse [6]; [12]): 35.1 s
- % effect vs control (mouse [6]; 10 mg/kg orally): 53.9%
- ED50 (mouse [6]): 6 mg/kg
- Basal release of [3H]NE on hippocampus slices: concentration increasing basal release by 100% (rat hippocampus slices): 6 µM
- IC50 (NMDA receptor [7]): 0.8 µM

SMILES: CC12CC3CC(C)(C1)CC(CCNC(=N)N)(C3)C2 [Compound 4, N-[2-(3,5-dimethyl-1-adamantyl)ethyl]guanidine]
- IC50 [2]: 0.8 µM
- Basal release of [3H]DA on striatum slices: concentration increasing basal release by 100% (rat striatum slices [3]): 8 µM
- IC50 (NMDA receptor [4]): ~40 µM
- Immobility in sec. (3–6 mins) (mouse [1]; [13]): 39.3* sec.
- Latent time vs immobility in sec. (6–15 mins) (mouse [1]; [13]): 353.3 s
- Immobility in sec. (3–6 mins) (mouse [1]; [14]): 39.8* sec.
- Latent time vs immobility in sec. (6–15 mins) (mouse [1]; [14]): 450.8* sec.
- Immobility in sec. (3–6 mins) (mouse [1]; [9]): 42.4* sec.
- Latent time vs immobility in sec. (6–15 mins) (mouse [1]; [9]): 495.8* sec.
- Basal release of [3H]Ach on striatum slices: concentration increasing basal release by 100% (rat striatum slices [5]): 20 µM
- Basal release of [3H]NE on hippocampus slices: concentration increasing basal release by 100% (rat hippocampus slices): 15 µM
- IC50 (NMDA receptor [7]): 0.5 µM

SMILES: N=C(NCCC12CC3CC(CC(C3)C1)C2)N[N+](=O)[O-] [Compound 5]
- melting point: 260 °C

SMILES: CC12CC3CC(C)(C1)CC(CCNC(=N)N[N+](=O)[O-])(C3)C2 [Compound 6, N-[2-(3,5-dimethyl-1-adamantyl)ethyl]-nitroguanidine]
- IC50 (NO-synthetase (NOS)): 80.4 µM

SMILES: CC12CC3CC(C)(C1)CC(CCNC(=N)C1CC1)(C3)C2 [Compound 7]
- melting point: 96 °C

SMILES: COC(=O)[C@@H](N)CCCNC(=N)N[N+](=O)[O-] [L-NAME]
- IC50 (NO-synthetase (NOS)): 340 µM

SMILES: CC12CC3CC(C)(C1)CC(N)(C3)C2 [Memantine, reference compound]
- IC50 [2]: 7.5 µM
- Basal release of [3H]DA on striatum slices: concentration increasing basal release by 100% (rat striatum slices [3]): inactive (30 μM)
- IC50 (NMDA receptor [4]): 80 µM
- Inhibition of the production of nitrite (NO-synthetase (NOS); up to the maximum concentration tested (3×10^−4M)): entirely inactive
- Basal release of [3H]Ach on striatum slices: concentration increasing basal release by 100% (rat striatum slices [5]): inactive (100 μM)
- Immobility time (mouse [6]; 0.1 mg/kg orally 30 minutes before the test): 49.9 s
- % effect vs control (mouse [6]; 0.1 mg/kg orally): 36.8%
- Immobility time (mouse [6]; [11]): 48.9 s
- % effect vs control (mouse [6]; 1 mg/kg orally): 38.0%
- Immobility time (mouse [6]; [12]): 40.1 s
- % effect vs control (mouse [6]; 10 mg/kg orally): 49.2%
- ED50 (mouse [6]): 24.9 mg/kg
- Basal release of [3H]NE on hippocampus slices: concentration increasing basal release by 100% (rat hippocampus slices): 130 µM
- IC50 (NMDA receptor [7]): 1.6 µM
